Patent US11318133B2, “Modulators of integrated stress response pathway” (Praxis Biotech LLC, priority 2019, dated 2022)

What was measured:
[1] = test system: Chinese hamster ovary (CHO) cells; assay: Protein synthesis assay (puromycin incorporation, western blot); assay type: cell-based; conditions: without Tg, 2 hours, media alone = 100%
Protocol: Chinese hamster ovary (CHO) cells were maintained at 37° C. and 5% CO2 in Dulbecco's Modified Eagle's Media (DMEM) supplemented with 10% fetal bovine serum, 2 mM L-glutamine, 100 U/ml penicillin, and 100 μg/ml streptomycin. After reaching 80% of confluence, cells were detached and seeded on 6 well plates in complete media, allowed to recover overnight and treated for 2 hours with 1 μM of the test compound (to assess protein synthesis levels in unstressed condition), or for 2 hours with 300 nM Tg in the presence of 1 μM of the test compound (to assess the recovery of protein synthesis in a stressed condition). Cells with Tg alone were used as controls.
After the 2 hours treatments, media were replaced by adding 10 μg/ml puromycin (Sigma Aldrich #P8833) in complete media for 30 min. Media were removed and cells were lysed with SDS-PAGE lysis buffer. Lysates were transferred to 1.5 ml tubes and sonicated for 3 min and total protein amount were quantified using BCA Protein Assay Kit (Pierce). Equal amount of protein (30 μg) was loaded on SDS-PAGE gels. Proteins were transferred onto […] PVDF membranes (BioRad) and probed with primary antibodies diluted in Tris-buffered saline supplemented with 0.1% Tween 20 (Merck #S6996184 505) and 3% bovine serum albumin (Rockland #BSA-50).
(§1) Puromycin (12D10) (Merck #MABE343) and 3-actin (Sigma Aldrich #A5441) antibodies were used as primary antibody. A HRP-conjugated secondary antibody (Rockland) was employed to detect immune-reactive bands using enhanced chemiluminescence (ECL Western Blotting Substrate, Pierce). Quantification of protein bands was done by densitometry using ImageJ software.
Percent increase of protein synthesis in unstressed cells (without Tg treatment) in the presence of media alone or certain test compounds is shown in Table 3. The percentage levels were normalized to the media alone condition, which correspond to 100% protein synthesis.
Percent recovery of protein synthesis in stressed cells (with Tg treatment) due to the test compounds at 1 μM is also shown in Table 3. The levels were normalized to the media alone and Tg alone conditions, which correspond to 100% and 0% respectively.

ATF4 = ATF4 expression inhibition assay (ATF4 luciferase reporter, thapsigargin-stressed); assay type: cell-based; conditions: Homo sapiens, HEK-293T; HEK293T cells carrying ATF4 luciferase reporter, 100 nM thapsigargin, 3 hours
Protocol: The ATF4 reporter was prepared by fusing the human full length 5′UTR of ATF4 (NCBI Accession No. BC022088.2) upstream of the firefly luciferase coding sequence lacking the initiator methionine. The fused sequence was cloned into pLenti-EF1a-C-Myc-DDK-IRES-Puro cloning vector (Origen #PS100085) using standard methods. Virus production was carried out by using Lenti-X™ Packaging Single Shots Protocol (Clonetech #631276). Viral particles were used to transduce HEK293T cells (ATCC #CRL-3216, ATCC Manassas, Va.), which were subsequently selected with puromycin to generate stable cell line. Cells were maintained at 37° C. and 5% CO2 in DMEM-F12 (Hyclone #SH30023.02) supplemented with 10% heat-inactivated fetal bovine serum (Gibco #16000-044), 2 mM L-glutamine (Gibco #25030-081), 100 U/ml penicillin, and 100 μg/ml streptomycin (Gibco #15140-122).
HEK293T cells carrying the ATF4 luciferase reporter were plated on 96-well plates (Nunc) at 10,000 cells per well. Cells were treated two days after seeding with 100 nM thapsigargin (Tg) (Sigma-Aldrich #T9033) in the presence of different concentrations of selected compounds ranging from 1 nM to […]. Cells without treatment or cells treated with Tg alone were used as controls. Assay plates containing cells were incubated for 3 hours at 37° C.
Luciferase reactions were performed using Luciferase Assay System (Promega #E1501) as specified by the manufacturer. Luminescence was read with an integration time of 1 s and a gain of 110 using a Cytation-5 multi-mode microplate reader (BioTek). Relative luminescence units were normalized to Tg treatment (0% inhibition) and untreated cells (100% inhibition) and the percentage of ATF4 inhibition was calculated.
Accordingly, inhibition of ATF4 expression as a result of the test compound indicates suppression of the ISR pathway.

Balb/c mice = assay: Fasting-induced muscle atrophy, in vivo protein synthesis; conditions: 10 mg/kg oral, 2 days fasting, versus vehicle-treated fasted mice; FIG. 1
Protocol: Wild type eight-weeks-old male Balb/c mice obtained from the vivarium Fundaciön Ciencia & Vida Chile (Santiago, Chile) are used. Mice were housed in independent plastic cages in a room maintained at 25° C. with a 12-h:12-h light:dark cycle. […]
Upon collection, muscles were immediately frozen in liquid nitrogen and then stored at −80° C. […] Protein concentration in supernatants was determined using BCA Protein Assay Kit (Pierce). […]
as §1, with “Millipore,” for “#MABE343)”, “β-actin (Sigma-Aldrich)” for “3-actin (Sigma Aldrich #A5441)”, “antibodies.” for “antibody.”
Percent of protein synthesis in tibialis anterior of each mouse from fed or fasted animals treated with vehicle or compound 3 is shown in FIG. 1. The levels were normalized to β-actin expression and percentage was calculated as the percent relative to protein synthesis levels from control mice (Fed) which correspond to 100%.

Row | IC50 (ATF4) [µM] | SMILES | % Protein synthesis in unstressed cells (1 μM test compound) [1] [%] | Protein synthesis in tibialis anterior of fasted mice (Balb/c mice)
1 | > 10 | O=C(NC1CCN(CC(O)COc2ccc(Cl)c(F)c2)CC1)c1cn(C2CC2)c2cc(Cl)c(F)cc2c1=O (centres unmarked) [Compound 1, 7-chloro-N-(1-(3-(4-chloro-3-fluorophenoxy)-2-hydroxypropyl)piperidin-4-yl)-1-cyclopropyl-6-fluoro-4-oxo-1,4-dihydroquinoline-3-carboxamide] | 336.9 | 
2 | > 10 | O=C(NC1CCN(C[C@@H](O)COc2ccc(Cl)c(F)c2)CC1)c1cn(C2CC2)c2cc(Cl)c(F)cc2c1=O [Compound 2, (R)-7-chloro-N-(1-(3-(4-chloro-3-fluorophenoxy)-2-hydroxypropyl)piperidin-4-yl)-1-cyclopropyl-6-fluoro-4-oxo-1,4-dihydroquinoline-3-carboxamide] | 336.3 | 
3 | > 10 | O=C(NC1CCN(C[C@H](O)COc2ccc(Cl)c(F)c2)CC1)c1cn(C2CC2)c2cc(Cl)c(F)cc2c1=O [Compound 3, (S)-7-chloro-N-(1-(3-(4-chloro-3-fluorophenoxy)-2-hydroxypropyl)piperidin-4-yl)-1-cyclopropyl-6-fluoro-4-oxo-1,4-dihydroquinoline-3-carboxamide] | 397.3 | improvement in protein synthesis in muscles
4 | > 10 | O=C(NN1CCN(C[C@@H](O)COc2ccc(Cl)c(F)c2)CC1)c1cn(C2CC2)c2cc(Cl)c(F)cc2c1=O [Compound 5, (R)-7-chloro-N-(4-(3-(4-chloro-3-fluorophenoxy)-2-hydroxypropyl)piperazin-1-yl)-1-cyclopropyl-6-fluoro-4-oxo-1,4-dihydroquinoline-3-carboxamide] | 173.2 | 
5 | > 10 | O=C(NN1CCN(C[C@H](O)COc2ccc(Cl)c(F)c2)CC1)c1cn(C2CC2)c2cc(Cl)c(F)cc2c1=O [Compound 6, (S)-7-chloro-N-(4-(3-(4-chloro-3-fluorophenoxy)-2-hydroxypropyl)piperazin-1-yl)-1-cyclopropyl-6-fluoro-4-oxo-1,4-dihydroquinoline-3-carboxamide] | 244.5 | 
